Broadly, the IC50 is the point on the concentration scale where inhibition reaches its midpoint.

Molecules are shown by their SMILES. Counter-ions that a name gives are not always drawn.

For one assay, the target named is T1, N-type calcium channel (NTCC) (Homo sapiens, UniProt Q00975).
T1 construct: host or cells: IMR32 cells differentiated with dibutyryl cAMP and bromodeoxyuridine
T1 sequence (Q00975 whole entry): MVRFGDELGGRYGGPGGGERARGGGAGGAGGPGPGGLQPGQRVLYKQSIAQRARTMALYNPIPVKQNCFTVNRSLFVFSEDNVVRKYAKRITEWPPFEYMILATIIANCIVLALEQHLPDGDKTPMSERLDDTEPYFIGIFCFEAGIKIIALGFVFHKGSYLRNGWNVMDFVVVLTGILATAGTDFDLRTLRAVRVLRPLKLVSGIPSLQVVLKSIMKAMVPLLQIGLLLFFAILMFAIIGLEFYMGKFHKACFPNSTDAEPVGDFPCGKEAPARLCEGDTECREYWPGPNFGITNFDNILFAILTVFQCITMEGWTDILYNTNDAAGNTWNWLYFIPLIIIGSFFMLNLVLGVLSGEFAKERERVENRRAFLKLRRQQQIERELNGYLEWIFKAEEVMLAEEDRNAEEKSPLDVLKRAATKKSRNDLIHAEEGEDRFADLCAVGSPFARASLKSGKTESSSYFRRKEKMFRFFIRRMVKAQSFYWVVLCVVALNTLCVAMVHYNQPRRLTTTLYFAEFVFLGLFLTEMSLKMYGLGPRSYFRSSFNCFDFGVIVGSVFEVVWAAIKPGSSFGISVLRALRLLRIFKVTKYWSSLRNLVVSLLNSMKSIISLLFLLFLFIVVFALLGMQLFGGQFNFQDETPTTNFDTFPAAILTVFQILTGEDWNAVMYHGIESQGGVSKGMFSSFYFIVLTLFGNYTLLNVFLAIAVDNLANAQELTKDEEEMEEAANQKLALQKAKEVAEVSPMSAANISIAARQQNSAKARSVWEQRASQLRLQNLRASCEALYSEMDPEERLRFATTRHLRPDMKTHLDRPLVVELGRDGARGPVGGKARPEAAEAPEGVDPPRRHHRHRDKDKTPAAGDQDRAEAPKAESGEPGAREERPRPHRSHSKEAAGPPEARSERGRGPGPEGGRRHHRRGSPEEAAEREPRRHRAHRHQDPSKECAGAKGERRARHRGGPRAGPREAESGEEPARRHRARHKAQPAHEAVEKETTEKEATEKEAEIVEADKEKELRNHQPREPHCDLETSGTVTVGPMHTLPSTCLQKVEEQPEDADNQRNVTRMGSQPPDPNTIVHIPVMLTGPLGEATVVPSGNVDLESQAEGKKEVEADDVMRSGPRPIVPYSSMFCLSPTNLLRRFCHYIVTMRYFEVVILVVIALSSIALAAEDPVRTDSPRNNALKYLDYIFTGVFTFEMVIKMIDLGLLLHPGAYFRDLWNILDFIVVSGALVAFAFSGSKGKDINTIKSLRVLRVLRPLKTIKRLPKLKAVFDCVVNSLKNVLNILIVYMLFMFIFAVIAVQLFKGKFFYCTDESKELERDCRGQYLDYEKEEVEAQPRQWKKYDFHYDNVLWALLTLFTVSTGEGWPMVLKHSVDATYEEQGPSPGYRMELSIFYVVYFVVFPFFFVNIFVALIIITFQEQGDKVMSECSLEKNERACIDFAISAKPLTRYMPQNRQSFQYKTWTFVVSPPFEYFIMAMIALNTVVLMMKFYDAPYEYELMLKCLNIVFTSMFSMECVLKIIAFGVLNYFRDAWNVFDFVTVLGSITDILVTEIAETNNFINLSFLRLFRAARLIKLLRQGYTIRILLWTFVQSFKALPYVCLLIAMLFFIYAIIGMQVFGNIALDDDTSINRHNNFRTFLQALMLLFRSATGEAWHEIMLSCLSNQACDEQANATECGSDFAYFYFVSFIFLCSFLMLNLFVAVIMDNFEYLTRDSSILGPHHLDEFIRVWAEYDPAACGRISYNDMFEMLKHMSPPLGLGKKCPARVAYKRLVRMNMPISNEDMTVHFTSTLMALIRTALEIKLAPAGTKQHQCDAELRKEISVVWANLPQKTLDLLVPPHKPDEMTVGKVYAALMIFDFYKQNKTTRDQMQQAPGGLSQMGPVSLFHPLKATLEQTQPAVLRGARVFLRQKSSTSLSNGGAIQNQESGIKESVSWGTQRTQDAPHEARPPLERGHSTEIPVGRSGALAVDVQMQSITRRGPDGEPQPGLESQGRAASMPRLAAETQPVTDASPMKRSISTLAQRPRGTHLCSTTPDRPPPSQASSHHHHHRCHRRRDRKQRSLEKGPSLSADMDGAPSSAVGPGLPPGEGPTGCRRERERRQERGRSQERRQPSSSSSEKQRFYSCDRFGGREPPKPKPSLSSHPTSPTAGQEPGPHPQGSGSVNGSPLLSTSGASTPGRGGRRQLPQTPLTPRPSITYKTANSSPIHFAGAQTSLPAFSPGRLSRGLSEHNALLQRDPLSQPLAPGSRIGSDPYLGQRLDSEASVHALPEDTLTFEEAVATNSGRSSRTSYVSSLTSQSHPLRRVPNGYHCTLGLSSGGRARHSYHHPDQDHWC
The assay is described as follows: FLIPR calcium mobilization assay for N-type calcium channel (differentiated IMR32 cells). As to conditions: about 1.0 μM or less; calcium mobilization and/or electrophysiological assay. The assay is classed as cell-based. Here is the method:
Cell maintenance and differentiation. Unless noted otherwise, cell culture reagents were purchased from Mediatech of Hemdon, Md. IMR32 cells (American Type Culture Collection, ATCC, Manassas, Va.) were routinely cultured in growth medium consisting of minimum essential medium containing 10% fetal bovine serum (FBS, Hyclone, Logan, Utah), 100 U/mL penicillin, 100 μg/mL streptomycin, 2 mM L-glutamine, 1 mM sodium pyruvate, and 1× MEM non-essential amino acids. 80-90% confluent flasks of cells were differentiated using the following differentiation medium: Growth medium plus 1 mM dibutyryl cyclic AMP (Sigma, St. Louis, Mo.), and 2.5 μM bromodeoxyuridine (Sigma). Cells were differentiated for 8 days by replacing differentiation medium every 2-3 days.
FLIPR Calcium Mobilization Assay for N-type Calcium Channel. One day prior to performing this assay, differentiated IMR32 cells were treated with 1× CellStripper, and seeded on poly-D-lysine-coated 96-well clear-bottom black plates (Becton Dickinson, Franklin Lakes, N.J.) at 200,000 cells/well. On the day of the assay, the cell plates were washed with IMR32 buffer (127 mM NaCl, 1 mM KCl, 2 mM MgCl2, 700 μM NaH2PO4, 5 mM CaCl2, 5 mM NaHCO3, 8 mM HEPES, 10 mM glucose, pH 7.4), then pre-stimulated with KCl and loaded as follows: 0.05 mL of IMR32 buffer, 0.05 mL of each compound tested diluted in IMR32 buffer containing 20 μM nitrendipine (Sigma), and 0.1 mL KCl dissolved in IMR32 buffer, plus Fluo-4 were added (3 μM final concentration, Molecular Probes, Eugene, Oreg.). Final test compound concentrations ranged from about 846 pM to about 17 μM, final nitrendipine concentration was 5 μM, and final KCl concentration was 90 mM. After 1 hour, the cells were washed twice with 0.05 mL of each compound tested in nitrendipine-containing IMR32 buffer (no KCl or Fluo-4), and then replaced with 0.1 mL of each compound tested in nitrendipine-containing IMR32 buffer. Plates were then transferred to a Fluorimetric imaging Plate Reader (FLIPR^96, Molecular Devices, Inc., Sunnyvale, Calif.) for assay. The FLIPR measured basal Fluo-4 fluorescence for 315 seconds (i.e., 5 minutes and 15 seconds), then added 0.1 mL KCl agonist dissolved in IMR32 buffer and measured fluorescence for another 45 seconds. Final test compound concentrations on the cells after FLIPR read ranged from about 846 pM to about 17 μM, final nitrendipine concentration was 5 μM, and final KCl concentration was 90 mM. Data were collected over the entire time course and analyzed using Excel, Graph Pad Prism (version 3.02, Graph Pad, San Diego, Calif.), or an in-house non-linear regression analysis software.
For orientation: Calcium flux is commonly read through the fluorescence of an indicator in the cells.
With `N#Cc1ccc(S(=O)(=O)N2CCC(=NOC(c3ccc(F)cc3)c3ccc(F)cc3)CC2)cc1` [Example 256, 4-(4-(Bis(4-fluorophenyl)methoxyimino)piperidin-1-ylsulfonyl)benzonitrile], the half-maximal inhibitory concentration (IC50) is at most 1000 nM.

Turning to `O=S(=O)(c1cccc(C(F)(F)F)c1)N1CCC(=NOCCc2ccccc2)CC1` [Example 310, 1-(3-(Trifluoromethyl)phenylsulfonyl)piperidin-4-one O-phenethyl oxime], the IC50 was at most 1000 nM.

For `O=C(CCC(c1ccc(F)cc1)c1ccc(F)cc1)N1CCC(=NOCc2ccccc2)CC1` [Example 31, 1-[4,4-Bis-(4-fluorophenyl)butyryl]piperidin-4-one O-benzyloxime], the half-maximal inhibitory concentration (IC50) is at most 1000 nM.

With `O=S(=O)(c1cccc(C(F)(F)F)c1)N1CCC(=NOCc2cccc(C(F)(F)F)c2)CC1` [Example 56, 1-(3-Trifluoromethylbenzenesulfonyl)piperidin-4-one O-(3-trifluoromethylbenzyl)oxime], the half-maximal inhibitory concentration (IC50) is at most 1000 nM.

On to `O=S(=O)(c1ccc(OCC2CC2)cc1)N1CCC(=NOCc2cccc(C(F)(F)F)c2)CC1` [Example 95, 1-(4-Cyclopropylmethoxybenzenesulfonyl)piperidin-4-one O-(3-trifluoromethylbenzyl)oxime], for which the IC50 was at most 1000 nM.

Turning to `O=S(=O)(c1ccc(OC(F)(F)F)cc1)N1CCC(=NOC(c2ccc(F)cc2)c2ccc(F)cc2)CC1` [Example 119, 1-(4-Trifluoromethoxybenzenesulfonyl)piperidin-4-one O-[bis(4-fluorophenyl)methyl]oxime], the IC50 is at most 1000 nM.

For the compound `N#Cc1cccc(S(=O)(=O)N2CCC(=NOC(c3ccc(F)cc3)c3ccc(F)cc3)CC2)c1` [Example 267, 3-(4-(Bis(4-fluorophenyl)methoxyimino)piperidin-1-ylsulfonyl)benzonitrile], the IC50 was at most 1000 nM.

As for `O=c1cc(CON=C2CCN(S(=O)(=O)c3ccc(OC(F)(F)F)cc3)CC2)ccn1Cc1ccc(F)cc1` [Example 296, 1-(4-Fluorobenzyl)-4-((1-(4-(trifluoromethoxy)phenylsulfonyl)piperidin-4-ylideneaminooxy)methyl)pyridin-2(1H)-one], the half-maximal inhibitory concentration (IC50) was at most 1000 nM.

Turning to `N#Cc1cc(CON=C2CCN(S(=O)(=O)c3ccc(OC(F)(F)F)cc3)CC2)ccc1F` [Example 108, 2-Fluoro-5-[1-(4-trifluoromethoxybenzenesulfonyl)piperidin-4-ylideneaminooxymethyl]benzonitrile], the half-inhibitory concentration (IC50) is at most 1000 nM.

Consider `N#Cc1cccc(C(CO)ON=C2CCN(S(=O)(=O)c3ccc(OC(F)(F)F)cc3)CC2)c1` (stereo not drawn) [Example 191, 3-(2-Hydroxy-1-(1-(4-(trifluoromethoxy)phenylsulfonyl)piperidin-4-ylideneaminooxy)ethyl)benzonitrile], for which the IC50 was at most 1000 nM.

`N#Cc1ccccc1CON=C1CCN(S(=O)(=O)c2ccc(OC(F)(F)F)cc2)CC1` [Example 120, 2-[1-(4-Trifluoromethoxybenzenesulfonyl)piperidin-4-ylideneaminooxymethyl]benzonitrile]: the IC50 is at most 1000 nM.

As for `CC(C)OCC(ON=C1CCN(S(=O)(=O)c2ccc(OC(F)(F)F)cc2)CC1)c1cccc(C#N)c1` (stereo not drawn) [Example 303, 3-(2-Isopropoxy-1-(1-(4-(trifluoromethoxy)phenylsulfonyl)piperidin-4-ylideneaminooxy)ethyl)benzonitrile], the 50% inhibitory concentration (IC50) was at most 1000 nM.

On to `N#Cc1cccc(CON=C2CCN(S(=O)(=O)c3ccc(F)c(F)c3)CC2)c1` [Example 210, 3-((1-(3,4-Difluorophenylsulfonyl)piperidin-4-ylideneaminooxy)methyl)benzonitrile], for which the IC50 was at most 1000 nM.

`CCCCc1ccc(S(=O)(=O)N2CCC(=NOCc3ccccc3)CC2)cc1` [Example 67, 1-(4-Butylbenzenesulfonyl)piperidin-4-one O-benzyloxime]: the 50% inhibitory concentration (IC50) was at most 1000 nM.

Take `O=S(=O)(c1ccc(OC(F)(F)F)cc1)N1CCC(=NOCc2ncccc2-c2ccccc2)CC1` [Example 313, 1-(4-(Trifluoromethoxy)phenylsulfonyl)piperidin-4-one O-(3-phenylpyridin-2-yl)methyl oxime]: the IC50 was at most 1000 nM.

Regarding `O=S(=O)(c1ccc(OC(F)F)cc1)N1CCC(=NOC(c2ccc(F)cc2)c2ccc(F)cc2)CC1` [Example 232, 1-(4-(Difluoromethoxy)phenylsulfonyl)piperidin-4-one O-bis(4-fluorophenyl)methyl oxime], the half-inhibitory concentration (IC50) was at most 1000 nM.

In the case of `COCCOc1ccc(S(=O)(=O)N2CCC(=NOCc3cccc(C(F)(F)F)c3)CC2)cc1` [Example 94, 1-[4-(2-Methoxyethoxy)benzenesulfonyl]piperidin-4-one O-(3-trifluoromethylbenzyl)oxime], the IC50 is at most 1000 nM.

Turning to `O=S(=O)(c1ccc(Cl)nc1)N1CCC(=NOCc2cccc(C(F)(F)F)c2)CC1` [Example 64, 1-(6-Chloropyridine-3-sulfonyl)piperidin-4-one O-(3-trifluoromethylbenzyl)oxime], the concentration for half-maximal inhibition (IC50) was at most 1000 nM.

Consider `CCCCc1ccc(S(=O)(=O)N2CCC(=NOCc3cccc(OC)c3)CC2)cc1` [Example 80, 1-(4-Butylbenzenesulfonyl)piperidin-4-one O-(3-methoxybenzyl)oxime], for which the IC50 is at most 1000 nM.

Turning to `CCCNc1ccc(S(=O)(=O)N2CCC(=NOCc3cccc(C(F)(F)F)c3)CC2)cn1` [Example 99], the IC50 was at most 1000 nM.

Consider `CCCCc1ccc(S(=O)(=O)N2CCC(=NOCc3ccccn3)CC2)cc1` [Example 68, 1-(4-Butylbenzenesulfonyl)piperidin-4-one O-pyridin-2-ylmethyloxime], for which the IC50 was at most 1000 nM.

`N#Cc1cccc(C(CN2CCOCC2)ON=C2CCN(S(=O)(=O)c3ccc(OC(F)(F)F)cc3)CC2)c1` (stereo not drawn) [Example 302, 3-(2-Morpholino-1-(1-(4-(trifluoromethoxy)phenylsulfonyl)piperidin-4-ylideneaminooxy)ethyl)benzonitrile]: the half-maximal inhibitory concentration (IC50) is at most 1000 nM.

In the case of `CCOc1ccc(S(=O)(=O)N2CCC(=NOCc3cccc(C(F)(F)F)c3)CC2)cc1` [Example 91, 1-(4-Ethoxybenzenesulfonyl)piperidin-4-one O-(3-trifluoromethylbenzyl)oxime], the half-maximal inhibitory concentration (IC50) is at most 1000 nM.

`COc1cc(CON=C2CCN(S(=O)(=O)c3ccc(OC(F)(F)F)cc3)CC2)cc(Cl)n1` [Example 147, 1-(4-Trifluoromethoxybenzenesulfonyl)piperidin-4-one O-(2-chloro-6-methoxypyridin-4-ylmethyl)oxime]: the IC50 is at most 1000 nM.

Regarding `O=S(=O)(c1ccc(Oc2ccccc2)nc1)N1CCC(=NOCc2cccc(C(F)(F)F)c2)CC1` [Example 101, 1-(6-Phenoxypyridine-3-sulfonyl)piperidin-4-one O-(3-trifluoromethylbenzyl)oxime], the half-maximal inhibitory concentration (IC50) was at most 1000 nM.

As to `CCCCc1ccc(S(=O)(=O)N2CCC(=NOCc3ccc(F)c(C(F)(F)F)c3)CC2)cc1` [Example 81, 1-(4-Butylbenzenesulfonyl)piperidin-4-one O-(4-fluoro-3-trifluoromethylbenzyl)oxime], the IC50 was at most 1000 nM.

Consider `O=S(=O)(c1ccc(OC(F)(F)F)cc1)N1CCC(=NOCc2nc3ccccc3[nH]2)CC1` [Example 162, 1-(4-(Trifluoromethoxy)phenylsulfonyl)piperidin-4-one O-(1H-benzo[d]imidazol-2-yl)methyl oxime], for which the IC50 was at most 1000 nM.

As to `O=C(CCN1CCC(c2ccccc2)CC1)N1CCC(=NOCc2cccc(C(F)(F)F)c2)CC1` [Example 47, 1-[3-(4-Phenylpiperidin-1-ylpropionyl]piperidin-4-one O-(3-trifluoromethylbenzyl)oxime hydrochloride], the IC50 was at most 1000 nM.

Staying with this assay, now noted: calcium mobilization in vitro assay, N-type calcium channel blockers.
`O=C(CN1CCC(=NOC(c2ccc(F)cc2)c2ccc(F)cc2)CC1)Nc1cc(C(F)(F)F)cc(C(F)(F)F)c1` [Example 328, 2-(4-(Bis(4-fluorophenyl)methoxyimino)piperidin-1-yl)-N-(3,5-bis(trifluoromethyl)phenyl)acetamide]: the IC50 turned out to be 1100 nM.

For the compound `O=C(CC(=O)N1CCC(=NOC(c2ccc(F)cc2)c2ccc(F)cc2)CC1)Nc1ccc(F)cc1F` [Example 227, 3-(4-(Bis(4-fluorophenyl)methoxyimino)piperidin-1-yl)-N-(2,4-difluorophenyl)-3-oxopropanamide], the IC50 amounted to 1100 nM.

Source of the values: patent US20090298878A1, “OXIME COMPOUNDS AND THE USE THEREOF” (priority 2006, published 2009).
